{"source": "patent US20160166531A1", "about": "“METHODS AND COMPOSITIONS FOR TREATING CARDIOVASCULAR DISORDERS” (Zafgen, Inc., priority 2010, published 2016)", "key": {"C-Reactive Protein (CRP)": {"system": "C-Reactive Protein (CRP)", "experiment": "Serum C-Reactive Protein in obese patients, intravenous twice weekly for 26 days", "assay_type": "in vivo, human", "method": "(§1) The compound was intravenously administered to each patient of a cohort (except for a placebo cohort) twice weekly for 26 days. Each of patients in the three non-placebo cohorts received either 0.1 mg/m^2 (cohort 1); 0.3 mg/m^2 (cohort 2); or 0.9 mg/m^2 (cohort 3) doses of the compound at the time of administration. The trial was conducted under the appropriate government and medical supervision."}, "thrombomodulin": {"system": "thrombomodulin", "experiment": "Thrombomodulin levels in obese patients", "assay_type": "in vivo, human", "settings": "obese patients of Example 6 (FIG. 7)", "text": "The expression of another cardiovascular risk marker, thrombomodulin, was examined in the patients described in Example 6. […] Similarly to Example 6, the reduction in thrombomodulin was independent of effects on metabolic parameters and body weight."}, "[1]": {"system": "low density lipoprotein cholesterol (LDLc)", "settings": "obese patients of Example 6 (FIG. 8)", "method": "as §1"}, "[2]": {"system": "apolipoprotein(a) (apoLp(a))", "experiment": "Apolipoprotein(a) levels in obese patients", "assay_type": "in vivo, human", "settings": "obese patients of Example 6 (FIG. 9)", "text": "The expression of another cardiovascular risk marker, apolipoprotein(a) (apoLp(a)), was examined in the patients described in Example 6. […] Similarly to Example 6, the reduction in apoLp(a) was independent of effects on body weight."}, "total cholesterol [3]": {"system": "total cholesterol", "experiment": "Total cholesterol in rats after four weeks of treatment", "assay_type": "in vivo", "parameters": "Total cholesterol levels, Mean: unit not given here", "settings": "for Total cholesterol levels, Mean: vehicle mean 86.7", "method": "Rats were administered 1 or 3 mg/kg fumagillol daily for a total of four weeks of treatment."}, "[4]": {"system": "C57BL/6 mice conditioned on a high fat diet", "experiment": "Oral fumagillin in mice conditioned on a high fat diet (DIO)", "assay_type": "in vivo", "text": "Oral administration of the MetAP2 inhibitor fumagillin causes an increase in circulating ketone bodies, as measured by concentration of beta hydroxybutyrate, which indicates an increase in the breakdown of stored fat and activation of ketogenesis."}, "FGF-21": {"system": "FGF-21", "experiment": "R&D Systems Quantikine Mouse FGF-21 Immunoassay, plasma FGF-21 after ten days of treatment", "assay_type": "in vivo", "text": "In Table 1, animals #1.1, 1.2, 1.3, 2.1, 2.2 and 2.3 were vehicle-treated and animal #3.1, 3.2, 3.3, 4.1, 4.2 and 4.3 were ZGN-201-treated. Sample 3.1 was above the level of quantification.\nFIG. 4 indicates the average (±SEM) plasma FGF-21 levels for all study groups."}, "PCSK9": {"system": "PCSK9", "experiment": "Liver mRNA levels of PCSK9 in treated mice", "assay_type": "in vivo", "settings": "C57BL/6 mice, at day 3 and after (FIG. 5)", "text": "Liver mRNA levels of PCSK9 were examined in C57BL/6 mice treated with ZGN-201. FIG. 5 depicts the hepatic PCSK9 mRNA (% of vehicle control) vs. days of treatment with ZGN-201."}, "total cholesterol [5]": {"system": "total cholesterol", "experiment": "Total cholesterol in human subjects with elevated total cholesterol", "assay_type": "in vivo", "settings": "human subjects with initial fasting total cholesterol in excess of 180 mg/dl, twice weekly for four weeks, n=10, p=0.018 (FIG. 3)", "method": "Human subjects with initial fasting total cholesterol levels in excess of 180 mg/dl were administered Compound A twice weekly for a total of four weeks of treatment."}, "[6]": {"settings": "1 mg/kg po daily for four weeks"}, "[7]": {"settings": "3 mg/kg po daily for four weeks"}}, "note": "Where “and” joins values, the source holds several entries; their conditions need not be identical. Equal entries are not always repeated.", "data": [{"smiles": "CO[C@@H]1[C@H](OC(=O)C=Cc2ccc(OCCN(C)C)cc2)CC[C@]2(CO2)[C@H]1[C@@]1(C)O[C@@H]1CC=C(C)C.O=C(O)C(=O)O", "note": "[6-O-(4-dimethylaminoethoxyl)cinnamoyl fumagillol oxalate]", "values": [{"measurement": "subjects with elevated CRP concentrations (above 3.0 μg/ml) reduced to levels within the normal range", "setting": "C-Reactive Protein (CRP); 0.9 mg/m^2 dose level, by the 26th day of treatment, p<0.01", "value": "six out of eight"}, {"measurement": "levels of C-Reactive Protein (CRP) in patients' serum", "setting": "C-Reactive Protein (CRP); obese patients, iv twice weekly for 26 days, 0.1, 0.3 or 0.9 mg/m^2 (FIG. 6)", "value": "decrease"}, {"measurement": "thrombomodulin levels", "setting": "thrombomodulin", "value": "decreases"}, {"measurement": "LDL-c levels", "setting": "[1]", "value": "decreases"}, {"measurement": "apoLp(a) levels", "setting": "[2]", "value": "decreases"}]}, {"smiles": "CO[C@@H]1[C@H](O)CC[C@]2(CO2)[C@H]1[C@@]1(C)O[C@@H]1CC=C(C)C", "note": "[Fumagillol, fumagillol]", "values": [{"measurement": "Total cholesterol levels, % of vehicle", "setting": "total cholesterol [3]; [6]", "value": 76.5, "unit": "%"}, {"measurement": "Total cholesterol levels, Mean", "setting": "total cholesterol [3]; [6]", "value": 66.3}, {"measurement": "Total cholesterol levels, % of vehicle", "setting": "total cholesterol [3]; [7]", "value": 63.7, "unit": "%"}, {"measurement": "Total cholesterol levels, Mean", "setting": "total cholesterol [3]; [7]", "value": 55.2}]}, {"smiles": "CO[C@@H]1[C@H](OC(=O)/C=C/C=C/C=C/C=C/C(=O)O)CC[C@]2(CO2)[C@H]1[C@@]1(C)O[C@@H]1CC=C(C)C", "note": "[fumagillin]", "values": [{"measurement": "hydroxybutyrate concentration at longer time points", "setting": "[4]; DIO C57BL/6 mice, diet admixture 1 mg/kg daily for 250 days (FIG. 1C)", "value": "Increased hydroxybutyrate concentration persisted"}, {"measurement": "beta hydroxybutyrate concentrations", "setting": "[4]; DIO C57BL/6 mice, oral gavage 0.3 or 3 mg/kg daily for 10 days (FIG. 1A)", "value": "increase"}, {"measurement": "free fatty acid concentration", "setting": "[4]; DIO C57BL/6 mice, oral gavage 0.3 or 3 mg/kg daily for 10 days (FIG. 1B)", "value": "without an increase"}, {"measurement": "sensitivity to insulin", "setting": "[4]; mice on a high fat diet", "value": "normalizes"}, {"measurement": "Fasted glucose and insulin levels, insulin-glucose product", "setting": "[4]; mice on high fat diet, 1 mg/kg fumagillin, versus age-matched lean mice and untreated DIO mice (FIG. 2A-2C)", "value": "more similar to that of age-matched lean mice than that of untreated mice on a high fat diet"}, {"measurement": "FGF-21 absolute numbers, Average of duplicates (single animals)", "setting": "FGF-21; animals 3.1 to 4.3, one value per animal, listed as ZGN-201", "value": "AQL and 2248.25 pg/ml and 2514.66 pg/ml and 2166.60 pg/ml and 1194.64 pg/ml and 3597.58 pg/ml"}, {"measurement": "FGF-21 MEAN of treated group", "setting": "FGF-21; vehicle group mean 991.47", "value": 2344.34, "unit": "pg/mL"}, {"measurement": "hepatic PCSK9 mRNA (% of vehicle control)", "setting": "PCSK9", "value": "reduced PCSK9 expression"}]}, {"smiles": "CO[C@@H]1[C@H](OC(=O)C=Cc2ccc(OCCN(C)C)cc2)CC[C@]2(CO2)[C@H]1[C@@]1(C)O[C@@H]1CC=C(C)C", "note": "[Compound A, O-(4-dimethylaminoethoxycinnamoyl)fumagillol]", "values": [{"measurement": "Total cholesterol levels", "setting": "total cholesterol [5]", "value": "reduced"}]}]}
